In US8193220B1 (priority 2009, dated 2012):
Like-named read-outs stand apart in the source and are kept apart here.

What was measured:
[1] = test system: eye muscles (lateral rectus muscle); type: in vivo, human
[2] = test system: eye muscles (lateral rectus muscle); settings: bupivacaine injected into eye muscles of strabismus patients; cited from earlier work
[3] = test system: extensor digitorum longus muscle; settings: rat hind limb extensor digitorum longus; cited from earlier work

CCCCN1CCCCC1C(=O)Nc1c(C)cccc1C (stereo not drawn) [bupivacaine]
change of eye alignment ([1]; bupivacaine alone into lateral rectus): ineffective in changing eye alignment
correction of strabismus ([1]; human, in vivo): successful correction of strabismus
length of regenerated lateral rectus muscle ([1]; human, in vivo): shorter length
length of regenerated lateral rectus muscle ([1]; one case of esotropia, bupivacaine alone, antagonist medial rectus unopposed): longer muscle
myotoxicity and weakness of the injected lateral rectus muscle ([1]; one case of esotropia, bupivacaine alone, first injection): very pronounced
effect on strabismus deviations [2]: correction or improvement of strabismus deviations
period of hypertrophy (growth beyond the original state) after regeneration [2]: 20 to 30 days
period of muscle weakness after injection [2]: 7 to 16 days
muscle size after injection [3]: enlargement of the muscle beyond its original size
